Assay results from patent US20180021485A1, “METHOD FOR MANUFACTURING DRUG-CONTAINING BIODEGRADABLE FIBER MATERIAL BY ELECTROSPINNING” (ORTHOREBIRTH CO., LTD., priority 2015, published 2018).

Key:
[1] = intraperitoneally administered to mice; cited from earlier work
[2] = Direct intraperitoneal administration of carboplatin to mice; assay type: in vivo, mouse; conditions: same amount of carboplatin as contained in the cotton-like carrier
Method: On the other hand, the mice to which PBS was administered lived three weeks or more after administration, and were therefore euthanized in the fourth week after administration.

[3] = LD50 of carboplatin intraperitoneally administered to mice; assay type: in vivo; conditions: mouse having a body weight of 30 g

## N.N.O=C([O-])C1(C(=O)[O-])CCC1.[Pt+2] [carboplatin, cis-Diamine(1,1-cyclobutanedicarboxylato)platinum (II)]
[1]
  LD50 (50% lethal dose): 150 mg/kg
[2]; healthy mice
  survival after direct intraperitoneal administration: all the mice died within several days
[2]
  findings at dissection after direct intraperitoneal administration: The intestines were necrosed and became dysfunctional
[3]
  LD50 per mouse: 4.5 mg
